Measurements published in patent US4761404A, “Phospholipid analogs useful as PAF synthesis inhibitors” (Merck & Co., Inc., priority 1985, dated 1988).

What was measured:
[1] = tested on: PAF biosynthesis; assay: PAF biosynthesis inhibition (rat spleen microsomes, [3H]acetyl CoA / lyso PAF); type: biochemical; details: 10 μM, incubation 5-8 minutes
Method: (1) Product PAF was estimated after reaction by liquid scintillation counting of the dried chloroform phase.
(2) [^3 H]Acetyl Co A was used in place of [^14 C],
(3) Incubation (i.e., reaction) times were generally within the range of 5-8 minutes.
(4) Concentrations used were in 1 ml of reaction mixture as follows:
Rat spleen microisomes: 50-150 μg

[2] = tested on: rabbit platlets; assay: aggregation of rabbit platelets (AC50); type: cell-based; details: Oryctolagus cuniculus, Platelet, 50% aggregation, only compounds structurally similar to PAF, read-out: AC50 (concentration of the test compound to obtain 50% aggregation of rabbit platlets)
From the text: The results obtained and the compounds tested are set forth in Table I below wherein "% I" represents percent inhibition and "AC50 " represents the concentration of the test compound to obtain 50% aggregation of rabbit platlets. The AC50 results were obtained only for those compounds which are structurally similar to PAF.

Molecule: 3-Hexadecylsulfonaminopropyl-1-phosphorylcholine [Example 51]
- % I (percent inhibition), PAF biosynthesis inhibition [1]: 34%

Molecule: 3-Octadecylaminocarbonylaminopropyl-1-phosphorylcholine [Example 52]
- % I (percent inhibition), PAF biosynthesis inhibition [1]: 74%

Molecule: 3-Tetradecycloxycarbonylaminopropyl-2-phosphorylcholine [Example 50]
- % I (percent inhibition), PAF biosynthesis inhibition [1]: 65%

Molecule: CCCCCCCCCCCCCCCCOCC(C)(O)COP(=O)([O-])OCC[N+](C)(C)C (stereo not drawn) [Example 12, 3-O-Hexadecyl-2-methylglycero-1-phosphorylcholine]
- AC50 [2]: > 100000 nM

Molecule: C=C(COCCCCCCCCCCCCCCCC)COP(=O)([O-])OCC[N+](C)(C)C [Example 13, 2-Hexadecyloxymethyl-2-propene-1-phosphorylcholine]
- % I (percent inhibition), PAF biosynthesis inhibition [1]: 38%
- AC50 [2]: 1300 nM

Molecule: CCCCCCCCCCCCCCCCOCC(COC(C)=O)COP(=O)([O-])OCC[N+](C)(C)C (stereo not drawn) [Example 14, 2-Acetoxymethyl-2-deoxy-3-O-hexadecylglycero-1-phosphocholine]
- % I (percent inhibition), PAF biosynthesis inhibition [1]: 36%
- AC50 [2]: 340 nM

Molecule: CCCCCCCCCCCCCCCCOCC(O)(COC(C)=O)COP(=O)([O-])OCC[N+](C)(C)C (stereo not drawn) [Example 15, 2-Acetoxymethyl-3-O-hexadecylglycero-1-phosphocholine]
- % I (percent inhibition), PAF biosynthesis inhibition [1]: 71%
- AC50 [2]: 70 nM

Molecule: CCCCCCCCCCCCCCCCOCC(CF)COP(=O)([O-])OCC[N+](C)(C)C (stereo not drawn) [Example 16, 2-Deoxy-2-fluoromethyl-3-0-hexadecylglycero-1-phosphocholine]
- % I (percent inhibition), PAF biosynthesis inhibition [1]: 30%
- AC50 [2]: 2200 nM

Molecule: CCCCCCCCCCCCCCCCOCC(CO)COP(=O)([O-])OCC[N+](C)(C)C (stereo not drawn) [Example 17, 2-Hydroxymethyl-2-deoxy-3-O-hexadecylglycero-1-phosphocholine]
- % I (percent inhibition), PAF biosynthesis inhibition [1]: 20%
- AC50 [2]: 24000 nM

Molecule: CCCCCCCCCCCCCCCCOCC(O)(CO)COP(=O)([O-])OCC[N+](C)(C)C (stereo not drawn) [Example 18, 2-Hydroxymethyl-3-O-hexadecylglycero-1-phosphocholine]
- % I (percent inhibition), PAF biosynthesis inhibition [1]: 82%
- AC50 [2]: 38000 nM

Molecule: Sodium 2-(2-N-hexadecanoylaminoethyl)-2'-(2 -methylcarbonylaminoethyl)phosphate [Example 46]
- % I (percent inhibition), PAF biosynthesis inhibition [1]: 90%

Molecule: Sodium 2-(2-N-hexadecanoylaminoethyl)-2'-(2-methylsulfinylethyl)phosphate [Example 53]
- % I (percent inhibition), PAF biosynthesis inhibition [1]: 71%
